# Measurements published in patent publication US20060183909A1, “Compositions derived from quinoline and quinoxaline, preparation and use thereof” (priority 2001, published 2006).
# Test system: xanthurenic acid receptor
# Experiment: Screening: displacement of [3H]-XA binding to synaptic membranes at a fixed concentration
# Conditions: not given
# Experimental: If this concentration produces the same or greater displacement than the same concentration of non-radiolabelled XA, then an IC50 is determined. […] The incubation time is 25 min. […] The filters are placed in scintillation vials to which 5 ml of Rotiszint® (Roth) are added and the vials are counted in a Beckman LS6000sc liquid scintillation counter. Specific binding is given as the difference between total binding and nonspecific binding. The percentage inhibition of binding that the synthetic compounds produce is calculated for each compound in relation to its positive control.
row,SMILES,"effect on xanthurenic acid binding, in words"
1,"O=C(O)c1cc(O)c2cccc(Br)c2n1 [Compound 3x, 4-hydroxy-8-bromo-quinoline-2-carboxylic acid]",increase the binding of xanthurenic acid

# Same assay, conditions: compound at 10 μM; 200 nM [3H]-XA, synaptic membranes
row,SMILES,real increase in total binding (potentiation)
1,"O=C(O)c1cc(O)c2cccc(Br)c2n1 [Compound 3x, 4-hydroxy-8-bromo-quinoline-2-carboxylic acid]",(+200% real increase

# Same assay, conditions: compound at 10 μM; 200 nM [3H]-XA, synaptic membranes; xanthurenic acid set arbitrarily to 100%
row,SMILES,% inhibition of XA binding at 10 μM*
1,"Cc1ccc(O)c2nc(C(=O)O)cc(O)c12 [Compound 3e, 4,8-dihydroxy-5-methyl-4-quinoline-2-carboxylic acid]",48%
2,"Nc1cc(CCc2ccccc2)cc2c(O)cc(C(=O)O)nc12 [Compound 118c, 6-phenylethyl-8-amino-4-hydroxy-quinoline-2-carboxylic acid]",66%
3,"Cl.NCCCc1cc(C(=O)O)nc2c(N)cccc12 [Compound 95c, 8-amino-4-(3-amino-prop-1-yl)-quinoline-2-carboxylic acid hydrochloride]",57%
4,"COc1ccc(Br)c2ccc(C(=O)O)nc12 [Compound 4g, 8-methoxy-5-bromo-quinoline-2-carboxylic acid]",0%
5,"CN1CCN(c2cccc3c(O)cc(C(=O)O)nc23)CC1.Cl [Compound 107b, 8-(4-methyl-piperazin-1-yl)4-hydroxy-quinoline-2-carboxylic acid hydrochloride]",43%
6,"O=C(O)c1cc(O)c2cc(CNCc3ccccc3)cc(O)c2n1 [Compound 26a, 4,8-dihydroxy-6-(benzylamino-methyl)-quinoline-2-carboxylic acid]",0%
7,"CNc1cc(C(=O)O)nc2c(N)cccc12.Cl [Compound 38d, 4-(N-methylamino)-8-amino-quinoline-2-carboxylic acid hydrochloride]",72%
8,"CCCc1cc(O)c2nc(C(=O)O)cc(O)c2c1 [Compound 19r, 4,8-dihydroxy-6-propyl-quinoline-2-carboxylic acid]",58.1%
9,"Cl.O=C(O)c1cc(N2CCNCC2)c2cccc(O)c2n1 [Compound 87c, 8-hydroxy-4-(piperazin-1-yl)-quinoline-2-carboxylic acid hydrochloride]",183%
10,"O=C(O)c1cc(O)c2c(CO)ccc(O)c2n1 [Compound 3g, 4,8-dihydroxy-5-hydroxymethyl-4-quinoline-2-carboxylic acid]",84%
11,"O=C(O)c1cc(O)c2cccc(OCc3ccccc3)c2n1 [Compound 3y, 4-hydroxy-8-benzyloxy-quinoline-2-carboxylic acid]",120%
12,"Cl.O=C(O)c1cc(O)c2cccc(-c3nn[nH]n3)c2n1 [Compound 62b, 4-hydroxy-8-(2H-tetrazol-5-yl)-quinoline-2-carboxylic acid hydrochloride]",94%
13,"O=C(O)c1nc2c(O)cccc2c(O)c1CN1CCOCC1 [Compound 39b, 3-(N-morpholinomethyl)-4,8-dihydroxy-quinoline-2-carboxylic acid]",77%
14,"O=C(O)c1cc(O)c2c(Br)ccc(O)c2n1 [Compound 3c, 4,8-dihydroxy-5-bromo-quinoline-2-carboxylic acid]",42%
15,"Cl.Nc1cccc2c(N3CCCCC3)cc(C(=O)O)nc12 [Compound 101c, 8-amino-4-(piperidin-1-yl)-quinoline-2-carboxylic acid hydrochloride]",20%
16,"CN(c1ccccc1)c1cccc2c(O)cc(C(=O)O)nc12.Cl [Compound 106b, 8-[phenyl(methyl)amino]-4-hydroxy-quinoline-2-carboxylic acid hydrochloride]",29%
17,"N#Cc1cc(-c2ccccc2)cc2c(O)cc(C(=O)O)nc12 [Compound 64b, 8-cyano-4-hydroxy-6-phenyl-quinoline-2-carboxylic acid]",14%
18,"Cl.O=C(O)c1cc(O)c2cccc(N3CCN(Cc4ccccc4)CC3)c2n1 [Compound 105b, 8-(4-benzyl-piperazin-1-yl)-4-hydroxy-quinoline-2-carboxylic acid hydrochloride]",66%
19,COc1cccc2ccc(C(=O)O)nc12,13%
20,"CNc1cccc2c(O)cc(C(=O)O)nc12.Cl [Compound 103b, 4-hydroxy-8-(methyl)amino-quinoline-2-carboxylic acid hydrochloride]",3%
21,"CC(C)(C)C(=O)Nc1cccc2c(O)cc(C(=O)O)nc12 [Compound 28b, 8-pivaloylamino-4-hydroxy-quinoline-2-carboxylic acid]",0%
22,"Nc1cccc2ccc(C(=O)O)nc12 [Compound 4f, 8-amino-quinoline-2-carboxylic acid]",0%

row,SMILES,% inhibition of XA binding at 10 μM*
1,"Cl.O=C(O)c1cc(N2CCCCC2)c2cccc(O)c2n1 [Compound 100c, 8-hydroxy-4-(piperidin-1-yl)-quinoline-2-carboxylic acid hydrochloride]",137%
2,"Cl.Nc1ccc(N2CCCCC2)c2c(O)cc(C(=O)O)nc12 [Compound 77c, 5-(piperidin-1-yl)-8-amino-4-hydroxy-quinoline-2-carboxylic acid hydrochloride]",6%
3,"COC(=O)c1cc(O)c2cc(Nc3ccccc3)cc(N)c2n1 [Compound 33c, Methyl-6-(N-anilino)-8-amino-4-hydroxy-quinoline-2-carboxylate]",97%
4,"O=C(O)c1cc(O)c2c(-c3ccccc3)ccc(O)c2n1 [Compound 19a, 4,8-dihydroxy-5-phenyl-quinoline-2-carboxylic acid]",1.8%
5,"Cl.Nc1cccc2c(CCc3ccccc3)cc(C(=O)O)nc12 [Compound 94c, 8-amino-4-(2-phenyleth-1-yl)-quinoline-2-carboxylic acid hydrochloride]",37%
6,"N#Cc1cc(Br)cc2c(O)cc(C(=O)O)nc12 [Compound 63c, 6-bromo-8-cyano-4-hydroxy-quinoline-2-carboxylic acid]",46%
7,"O=C(O)CC1Nc2c(O)cccc2NC1=O (stereo not shown) [Compound 60c, [8-(hydroxy)-3-oxo-3,4-dihydroquinoxaline-2(1H)-yl]acetic acid]",69%
8,"Cl.O=C(O)c1cc(N2CCOCC2)c2cccc(O)c2n1 [Compound 99c, 8-hydroxy-4-(morpholin-1-yl)-quinoline-2-carboxylic acid hydrochloride]",220%
9,"O=C(O)c1cc(O)c2cccc(Br)c2n1 [Compound 3x, 4-hydroxy-8-bromo-quinoline-2-carboxylic acid]",Potentiation
10,"Cl.O=C(O)c1cc(O)c2cccc(N3CCNCC3)c2n1 [Compound 108b, 4-hydroxy-8-(piperazin-1-yl)-quinoline-2-carboxylic acid hydrochloride]",62%
11,"Cl.O=C(O)c1cc(O)c2cccc(N3CCOCC3)c2n1 [Compound 104b, 4-hydroxy-8-(morpholin-1-yl)-quinoline-2-carboxylic acid hydrochloride]",40%
12,"O=C(O)c1nc2c(OCc3ccccc3)cccc2c(O)c1CN1CCCC1 [Compound 40a, 3-(N-pyrrolidinomethyl)-8-benzyloxy-4-hydroxy-quinoline-2-carboxylic acid]",83%
13,"O=C(O)c1nc2c(O)cccc2[nH]c1=O [Compound 59c, 8-hydroxy-3-oxo-3,4-dihydroquinoxaline-2-carboxylic acid]",97%
14,"Cc1cc(O)c2nc(C(=O)O)cc(O)c2c1 [Compound 3n, 4,8-dihydroxy-6-methyl-quinoline-2-carboxylic acid]",21.2%
15,"N#Cc1cccc2c(O)c(Br)c(C(=O)O)nc12 [Compound 66b, 3-bromo-8-cyano-4-hydroxy-quinoline-2-carboxylic acid]",69%
16,"O=C(O)c1cc(O)c2c(C(F)(F)F)ccc(O)c2n1 [Compound 98c, 4,8-dihydroxy-5-trifluoromethyl-quinoline-2-carboxylic acid]",94%
17,"Nc1cc(C(=O)O)nc2c(N)cccc12 [17'b, 4,8-diamino-quinoline-2-carboxylic acid]",7.7%
18,"O=C(O)c1nc2c(O)cccc2c(O)c1Br [Compound 52c, 3-bromo-4,8-dihydroxy-quinoline-2-carboxylic acid]",143%
19,"O=C(O)c1nc2c(O)c(Br)ccc2c(O)c1Br [Compound 56c, 3,7-dibromo-4,8-dihydroxy-quinoline-2-carboxylic acid]",112%
20,"COc1ccc(-c2cc(O)c3nc(C(=O)O)cc(O)c3c2)cc1 [Compound 19g, 4,8-dihydroxy-6-(4-methoxy-phenyl)-quinoline-2-carboxylic acid]",54.5%
21,"O=C(O)c1cc(-c2ccccc2)c2cccc(O)c2n1 [Compound 10b, 8-hydroxy-4-phenyl-quinoline-2-carboxylic acid]",94.5%
22,"Nc1ccc(-c2ccccc2)c2c(O)cc(C(=O)O)nc12 [Compound 73c, 5-phenyl-8-amino-4-hydroxy-quinoline-2-carboxylic acid]",69%
